Here are results for 13 compounds from ChEMBL document CHEMBL1201862, “PubChem BioAssay data set” (2004).

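A five-concentration, 48-hour dose response in 96-well plates underlies each endpoint, interpolated linearly between surrounding concentrations. GI50: concentration for 50% inhibition of growth.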 The source made the active and inactive calls. Rule as the data show it: active = GI50 up to about 1.1 µM and inactive = higher.

Test systems include HCT-15; SF-295; SK-MEL-28; A549; COLO 205; OVCAR-3; NCI-H460; SK-OV-3; K562; OVCAR-5; UO-31; HOP-92; CAKI-1; 786-0; ACHN; OVCAR-4; KM12; U-251; A498.
Experiment in all cases: NCI anticancer screen, dose series, 48 h

For `O=C(CO)CC(=O)C(=O)Nc1cccc(C(F)(F)F)c1`, the GI50 is over 100 µM with HCT-15; > 100 µM (inactive) with SF-295; > 100 µM (inactive) in the assay with SK-MEL-28; > 100 µM (inactive) with A549; > 100 µM (inactive) in the assay with COLO 205; > 100 µM (inactive) in the assay on OVCAR-3. The GI50 in the assay with NCI-H460, in the assay with SK-OV-3, in the assay on K562, in the assay with OVCAR-5, with UO-31 and in the assay with HOP-92 was > 100 µM (inactive) each time. The GI50 in the assay with CAKI-1, with 786-0, with ACHN, in the assay with OVCAR-4 and with KM12 was > 100 µM (inactive) in each case.

For the compound `COc1ccc(CN(CCN(C)C)c2ccccn2)cc1.Cn1c(=O)c2[nH]c(Br)nc2n(C)c1=O`, the GI50 in the assay with HCT-15 is 71.6 µM; in the assay on SF-295, > 100 µM (inactive); in the assay on SK-MEL-28 it was > 100 µM (inactive); in the assay on OVCAR-3, > 100 µM (inactive); with SK-OV-3, > 100 µM (inactive); in the assay with K562 it was 94 µM (inactive). Moreover, the GI50 was > 100 µM (inactive) with OVCAR-5; > 100 µM (inactive) with UO-31; 22.3 µM (inactive) in the assay on HOP-92; > 100 µM (inactive) in the assay on CAKI-1; > 100 µM (inactive) in the assay with 786-0; > 100 µM (inactive) in the assay on ACHN. The GI50 in the assay on U-251, with KM12 and with A498 was > 100 µM (inactive) throughout.

For `CN1CCc2c1nc(-c1ccc(Cl)cc1)c1c2N(C)CC1`, the GI50 in the assay on HCT-15 is 7.06 µM; with SF-295, 14.1 µM (inactive); with A549, 18.3 µM (inactive); in the assay with COLO 205, 2.07 µM (inactive); with OVCAR-3, 1.51 µM (inactive); with NCI-H460, 15.7 µM (inactive). Also, the GI50 was 21.2 µM (inactive) in the assay on SK-OV-3; 9.29 µM (inactive) with K562; 24.1 µM (inactive) in the assay with OVCAR-5; 10.7 µM (inactive) with UO-31; 6.44 µM (inactive) in the assay on CAKI-1; > 100 µM (inactive) with 786-0. Moreover, the GI50 is 6.78 µM (inactive) in the assay on ACHN; 3.74 µM (inactive) with U-251; 28.4 µM (inactive) with OVCAR-4; 3.7 µM (inactive) in the assay on KM12; 19.7 µM (inactive) with A498.

Regarding `O=C1CCC2(c3ccc(F)cc3)Nc3ncccc3N12` (stereo unspecified), the GI50 with HCT-15 is over 100 µM; with SF-295, > 100 µM (inactive); in the assay on SK-MEL-28 it was > 100 µM (inactive); with A549 it was > 100 µM (inactive); in the assay with COLO 205 it was > 100 µM (inactive); in the assay with OVCAR-3, > 100 µM (inactive). Also, the GI50 in the assay on NCI-H460, with K562, in the assay with OVCAR-5, in the assay on UO-31, in the assay on HOP-92 and in the assay with CAKI-1 was > 100 µM (inactive) each time. Also, the GI50 in the assay on 786-0, in the assay with ACHN, in the assay on U-251, in the assay with OVCAR-4, with KM12 and with A498 was > 100 µM (inactive) throughout.

`CN(C(=O)c1ccc(Cl)cc1)C(=S)N1CCN(c2ccccc2)CC1`: the GI50 with HCT-15 was 87.5 µM; with SF-295, > 100 µM (inactive); with SK-MEL-28, > 100 µM (inactive); with A549 it was 89.1 µM (inactive); in the assay on COLO 205, 50.9 µM (inactive); with OVCAR-3, > 100 µM (inactive). Moreover, the GI50 in the assay with NCI-H460 is 37.8 µM (inactive); in the assay with K562 it was 42.1 µM (inactive); with OVCAR-5, > 100 µM (inactive); with UO-31, 20.1 µM (inactive); with HOP-92, 89.5 µM (inactive); in the assay with 786-0 it was > 100 µM (inactive). The GI50 was > 100 µM (inactive) with ACHN, > 100 µM (inactive) in the assay with U-251, > 100 µM (inactive) in the assay with OVCAR-4 and 53.2 µM (inactive) with KM12.

Turning to `CCOC(=O)NC(=O)c1cn(CCOC(=O)NCCCCCCNC(=O)OCCn2cc(C(=O)NC(=O)OCC)c(=O)[nH]c2=O)c(=O)[nH]c1=O`, the GI50 in the assay on HCT-15 was over 100 µM; in the assay on SF-295, > 100 µM (inactive); in the assay on SK-MEL-28, > 100 µM (inactive); with A549 it was > 100 µM (inactive); in the assay with COLO 205 it was > 100 µM (inactive); in the assay with OVCAR-3 it was > 100 µM (inactive). In addition, the GI50 in the assay with NCI-H460, with SK-OV-3, in the assay with K562, in the assay on UO-31, in the assay with CAKI-1 and with 786-0 was > 100 µM (inactive) throughout. In addition, the GI50 in the assay on ACHN, in the assay with U-251, with OVCAR-4, in the assay on KM12 and in the assay on A498 was > 100 µM (inactive) in each case.

Take `CCCCCCC(=O)C/C(=N/NC(N)=S)C(=O)NC1C2CC3CC(C2)CC1C3` (stereo unspecified): the GI50 with SF-295, in the assay with SK-MEL-28, in the assay on A549, in the assay with COLO 205, with OVCAR-3 and in the assay with NCI-H460 was > 100 µM (inactive) throughout. The GI50 with OVCAR-5 is > 100 µM (inactive); with UO-31, > 100 µM (inactive); in the assay on HOP-92, 86.1 µM (inactive); with 786-0 it was > 100 µM (inactive); with ACHN it was > 100 µM (inactive); with U-251 it was > 100 µM (inactive). Moreover, the GI50 in the assay with OVCAR-4 and in the assay with KM12 was > 100 µM (inactive) each time.

Regarding `Cc1ccc(S(=O)(=O)N2CCN(C=S)CC2)cc1`, the GI50 with HCT-15 is over 100 µM; in the assay on SK-MEL-28 it was > 100 µM (inactive); in the assay with A549 it was > 100 µM (inactive); in the assay on COLO 205 it was > 100 µM (inactive); in the assay with OVCAR-3, > 100 µM (inactive); in the assay with NCI-H460, > 100 µM (inactive). Also, the GI50 in the assay on SK-OV-3, in the assay with K562, in the assay on OVCAR-5, in the assay on UO-31, in the assay with 786-0 and in the assay on ACHN was > 100 µM (inactive) each time. The GI50 with U-251, in the assay with KM12 and with A498 was > 100 µM (inactive) in each case.

With `Cc1cc(C)c(C(=O)OC(c2ccccc2)C(c2ccccc2)N2CCOCC2)c(C)c1` (stereo unspecified), the GI50 in the assay with HCT-15 is over 100 µM; with SF-295 it was > 100 µM (inactive); with SK-MEL-28, > 100 µM (inactive); with A549, > 100 µM (inactive); with COLO 205, > 100 µM (inactive); in the assay on OVCAR-3 it was > 100 µM (inactive). Also, the GI50 with NCI-H460, in the assay on SK-OV-3, in the assay with K562, in the assay on UO-31, in the assay with CAKI-1 and in the assay with 786-0 was > 100 µM (inactive) throughout. Further, the GI50 with ACHN, with U-251, in the assay on KM12 and with A498 was > 100 µM (inactive) each time.

Turning to `O=C1/C(=C/c2ccc(Cl)cc2)CCC1CCN1CCOCC1` (stereo unspecified), the GI50 was 36.3 µM in the assay on HCT-15; > 100 µM (inactive) with SF-295; > 100 µM (inactive) in the assay with SK-MEL-28; > 100 µM (inactive) in the assay on A549; 59.3 µM (inactive) in the assay with OVCAR-3; 38.9 µM (inactive) in the assay with NCI-H460. The GI50 in the assay with K562 is 25.8 µM (inactive); with OVCAR-5 it was > 100 µM (inactive); in the assay on UO-31, 68.7 µM (inactive); in the assay on HOP-92 it was 75.7 µM (inactive); in the assay on CAKI-1 it was 76.2 µM (inactive); in the assay with 786-0 it was 72.3 µM (inactive). The GI50 with ACHN was 60.4 µM (inactive); with OVCAR-4 it was 37.8 µM (inactive); with KM12 it was 40.8 µM (inactive); in the assay on A498, 61.1 µM (inactive).

As for `C[C@@]1(CO)[C@H](O)CC[C@@]2(C)[C@H]1CC[C@H]1C[C@@H]3C[C@@]12CC[C@@]3(O)COC(=O)CN`, the GI50 was 100 µM (inactive) in the assay on SK-MEL-28; 19.1 µM (inactive) with COLO 205; 58.3 µM (inactive) in the assay with OVCAR-3; 39.4 µM (inactive) in the assay on SK-OV-3; 5.55 µM (inactive) in the assay on K562; 4.7 µM (inactive) with UO-31. In addition, the GI50 is 20.4 µM (inactive) with HOP-92; 0.762 µM (active) with CAKI-1; 0.923 µM (active) in the assay on 786-0; 0.098 µM (active) in the assay on ACHN; 10.6 µM (inactive) with U-251; 49.8 µM (inactive) with OVCAR-4. In the assay on KM12, the GI50 is 28 µM (inactive).

For `Cc1cc(=O)n(-c2cc3cccccc-3n2)[nH]1`, the GI50 with HCT-15 was 5.07 µM; in the assay with SF-295, 16.7 µM (inactive); in the assay with SK-MEL-28, 4.67 µM (inactive); with A549, 12.4 µM (inactive); in the assay with COLO 205, 14.4 µM (inactive); in the assay on OVCAR-3, 3.05 µM (inactive). The GI50 is 3.4 µM (inactive) in the assay with NCI-H460; 6.31 µM (inactive) in the assay with SK-OV-3; 2.74 µM (inactive) in the assay on K562; 15.5 µM (inactive) in the assay with OVCAR-5; 6.35 µM (inactive) in the assay with UO-31; 4.58 µM (inactive) with 786-0. Moreover, the GI50 is 5.87 µM (inactive) in the assay with ACHN, 2.04 µM (inactive) in the assay with U-251, 5.38 µM (inactive) in the assay on KM12 and 16.8 µM (inactive) in the assay on A498.

With `O=C(CC1Sc2ccccc2NC1=O)Nc1cccc(Cl)c1` (stereo unspecified), the GI50 is 40.6 µM with HCT-15; 59.3 µM (inactive) in the assay on SF-295; 24 µM (inactive) in the assay on SK-MEL-28; 43.8 µM (inactive) in the assay with A549; 27 µM (inactive) with OVCAR-3; 38.5 µM (inactive) in the assay on NCI-H460. Also, the GI50 is 51.8 µM (inactive) in the assay on K562; > 100 µM (inactive) in the assay on OVCAR-5; 28.8 µM (inactive) with UO-31; 25.5 µM (inactive) with HOP-92; 33 µM (inactive) in the assay with CAKI-1; 39.4 µM (inactive) in the assay with 786-0. For the same compound, the GI50 in the assay with ACHN is 31.8 µM (inactive); in the assay on U-251 it was 30.4 µM (inactive); in the assay on OVCAR-4, 44.8 µM (inactive); in the assay on A498, 28.6 µM (inactive).
